pEC50: −log10 of the molar value.
Key:
brain cells (SK-N-MC) = test: Protective effect when tBHP was treated on brain cells (LDH assay); format: cell-based; conditions: Homo sapiens, tBHP 400 uM, 6 h
Protocol: In order to assess the protective effect on brain cells, 2×10^4 brain cells were distributed into the 96-well plate using DMEM media (Gibco, 10% FBS), and incubated for 24 h. The Example compounds were serially diluted by 3-fold to the final concentration of 30, 10, 3, 1, 0.3, 0.1 uM, by which each well was treated for 1 h. Cells were treated with tBHP at the final concentration of 400 uM, and incubated for 6 h. 50 uL of media was taken from each well to proceed with LDH assay (Promega). In LDH assay, 50 uL of media was mixed with 50 uL of assay solution. After the reaction for 30 min at room temperature, absorbance was measured at 490 nm using SpectraMax (Molecular Device).

[1] = system: primary hepatocytes isolated from rats; test: Hepatocyte protective effect against substances deriving hepatocyte toxicity (WST-1 viability); format: cell-based; conditions: Rattus norvegicus, Hepatocyte, doxorubicin, 24-48 h, read-out: EC50, cell protective effects against doxorubicin in hepatocytes
Procedure, shortened: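 Hepatocytes from two-step collagenase perfusion (≥90% viable) seeded on collagen, pretreated 30 min with compound (5-step 2- or 3-fold dilutions from 30, 10 or 1 uM; 0.2% DMSO), then exposed to hepatotoxic agents. WST-1 absorbance at 440 nm after 24-48 h; EC50 = concentration giving 50% of maximal protection.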

chondrocytes = test: Protective effect when tBHP was treated on chondrocytes (SRB method); format: cell-based, SD rats; conditions: Chondrocyte; tBHP 500 uM, 3 h; rat chondrocytes
Protocol: (§1) In order to determine the protective effect on pancreatic cells, Linm5F cells, a sort of the beta cells, were distributed into the 96-well plate in the amount of 2×10^4 cells/well, and incubated for 24 h. The Example compounds were serially diluted by 3-fold to the final concentration of 30, 10, 3, 1, 0.3, 0.1 uM, by which each well was treated for 1 h. Cells were treated with tBHP at the final concentration of 400 uM, and further incubated for 5 h. Protective effects were determined using SRB (Sulforhodamine B Protein) method in which total amount of cellular protein is stained. Briefly, cells were incubated for 5 h, 50 uL of 4% formaldehyde solution was added to each well to fix the cells, and stored for about 30 min at room temperature. After discarding the media, each well was washed with distilled water 2-3 times, and the plate was dried in an oven at 50° C. 50 uL of SRB solution was added to each well, and placed for about 30 min at room temperature. After removing SRB solution, the plate was washed with 1% acetic acid solution 2-3 times. […]
In order to determine the protective effect on chondrocytes, chondrocytes were isolated from 2 hind legs of 16 week-old SD rats (body weight: 450-460 g). […] Protective effect of each compound was determined using the same SRB staining method as in Linm5F of above mentioned 2).

kidney cells (LLC-PK1) = test: Protective effect when tBHP was treated on kidney cells (SRB method); format: cell-based; conditions: Sus scrofa, tBHP 400 uM, 6 h
Protocol: as §1
In order to determine the protective effect on kidney cells, 4×10^4 cells were distributed into each well, and incubated for 24 h. […] Protective effect of each compound was determined using the same SRB method as in Linm5F of above mentioned 2).

[2] = system: pancreatic cells (Linm5F); test: Protective effect when tBHP was treated on pancreatic cells (SRB method); format: cell-based; conditions: tBHP 400 uM, 5 h
Protocol: (§2) In order to determine the protective effect on pancreatic cells, Linm5F cells, a sort of the beta cells, were distributed into the 96-well plate in the amount of 2×10^4 cells/well, and incubated for 24 h. The Example compounds were serially diluted by 3-fold to the final concentration of 30, 10, 3, 1, 0.3, 0.1 uM, by which each well was treated for 1 h. Cells were treated with tBHP at the final concentration of 400 uM, and further incubated for 5 h. Protective effects were determined using SRB (Sulforhodamine B Protein) method in which total amount of cellular protein is stained. Briefly, cells were incubated for 5 h, 50 uL of 4% formaldehyde solution was added to each well to fix the cells, and stored for about 30 min at room temperature. After discarding the media, each well was washed with distilled water 2-3 times, and the plate was dried in an oven at 50° C. 50 uL of SRB solution was added to each well, and placed for about 30 min at room temperature. After removing SRB solution, the plate was washed with 1% acetic acid solution 2-3 times. After drying the plate in an oven at 50° C., 100 uL of 10 mM Tris was added to elute SRB which was staining the intracellular protein.

[3] = system: cardiac cells (H9C2, white rat cardiomyocyte); test: Protective effect when tBHP was treated on cardiac cells (SRB method); format: cell-based; conditions: tBHP 400 uM, 2 h
Protocol: as §2
In order to assess the protective effect on cardiac cells, H9C2 cells were distributed in the amount of 1.5×10^4 cells/well, and incubated for 24 h. The Example compounds were serially diluted by 3-fold to the final concentration of 30, 10, 3, 1, 0.3, 0.1 uM, by which each well was treated for 45 min. Cells were treated with tBHP at the final concentration of 400 uM, and incubated for 2 h. Protective effect of each compound was determined using the same SRB method as in Linm5F of above mentioned 2).

SMILES | pEC50 (brain cells (SK-N-MC)) | pEC50 [1] | pEC50 (chondrocytes) | pEC50 (kidney cells (LLC-PK1)) | pEC50 [2] | pEC50 [3]
O=C1CN(Cc2cc(NC3CCOCC3)c3[nH]c(-c4ccccc4)cc3c2)CCN1 [Example 37, (Tetrahydropyran-4-yl)-[2-phenyl-5-(2-oxo-piperazin-4-yl)methyl-1H-indol-7-yl]amine] | ≥ 7.00 | 6.82 |  |  |  | 
Cc1cc(N(C)C2CCOCC2)c2[nH]c(-c3ccccc3)cc2c1 [Example 55, (Tetrahydropyran-4-yl)-(5-methyl-2-phenyl-1H-indol-7-yl)-methyl-amine] | ≥ 7.00 | 6.52 |  |  |  | 
O=S1(=O)CCN(Cc2cc(NCC3CCOCC3)c3[nH]c(-c4ccccc4)cc3c2)CC1 [Example 56, (Tetrahydropyran-4-ylmethyl)-[2-phenyl-5-(1,1-dioxo-thiomorpholin-4-yl)methyl-1H-indol-7-yl]amine] |  | 6.89 | ≥ 7.00 | 6.18 | ≥ 7.00 | 
O=C1CN(Cc2cc(NCC3CCOCC3)c3[nH]c(-c4ccccc4)cc3c2)CCN1 [Example 63, (Tetrahydropyran-4-ylmethyl)-[2-phenyl-5-(2-oxo-piperazin-4-yl)methyl-1H-indol-7-yl]amine] | ≥ 7.00 | 6.77 | ≥ 7.00 |  |  | 
O=S1(=O)CCN(Cc2cc(NCC3CCOCC3)c3[nH]c(-c4ccccc4)c(Br)c3c2)CC1 [Example 74, (Tetrahydropyran-4-ylmethyl)-(3-bromo-5-(1,1-dioxo-thiomorpholin-4-yl)methyl-2-phenyl-1H-indol-7-yl)-amine] |  | 6.46 |  |  |  | ≥ 6.70
CC(=O)Nc1ccc(-c2cc3cc(N4CCS(=O)(=O)CC4)cc(N(C4CCCC4)C4CCCC4)c3[nH]2)cc1 [Example 86, Dicyclopentyl-{5-(1,1-dioxo-thiomorpholin-4-yl)-2-[4-(acetyl)aminophenyl]-1H-indol-7-yl}-amine] |  | 5.84 |  |  |  | 6.30
CS(=O)(=O)N1CCC(Nc2cc(CN3CCS(=O)(=O)CC3)cc3cc(-c4ccccc4)[nH]c23)CC1 [Example 97, (5-(1,1-Dioxo-thiomorpholin-4-yl)methyl-2-phenyl-1H-indol-7-yl)-(1-methanesulfonyl-piperidin-4-yl)-amine] |  | 7.05 |  |  |  | ≥ 6.70
COC(=O)CNc1cc(F)cc2cc(-c3ccccc3)[nH]c12 [Example 106, 2-(5-Fluoro-2-phenyl-1H-indol-7-yl)amino-acetic acid methyl ester] |  | 6.35 |  |  | ≥ 7.00 | 
O=C(O)CNc1cc(F)cc2cc(-c3ccccc3)[nH]c12 [Example 107, 2-(5-Fluoro-2-phenyl-1H-indol-7-yl)amino-acetic acid] |  | 6.46 |  |  | ≥ 7.00 | 
Cc1ccc(Nc2cc(Cl)cc3c(-c4ccccc4)c[nH]c23)nc1 [Example 115, (5-Chloro-3-phenyl-1H-indol-7-yl)-(5-methyl-pyridin-2-yl)-amine] | 6.59 | < 5.70 |  |  |  | 
O=C(O)[C@@H]1CCCN1C(=O)c1cc(NC2CCCC2)c2[nH]c(-c3ccccc3)cc2c1 [Example 117, (2S)-1-(7-cyclopentylamino-2-phenyl-1H-indole-5-carbonyl)-pyrrolidine-2-carboxylic acid] |  | 6.59 |  |  |  | ≥ 6.70
Brc1c(-c2ccccc2)[nH]c2c(NC3CCOCC3)cc(CN3CCOCC3)cc12 [Example 162, (Tetrahydropyran-4-yl)-[3-bromo-5-(morpholin-4-yl)methyl-2-phenyl-1H-indol-7-yl]-amine] |  | 6.15 |  |  |  | 
